pIC50, pKi: −log10 of the molar value.
Experiments:
[1] = target: T1, p-hydroxybenzoate hydroxylase (Pseudomonas fluorescens, UniProt P00438); test: Binding affinity against p-hydroxybenzoate hydroxylase (PHBH) from Pseudomonas fluorescence competing with NADPH
[2] = target: T1, p-hydroxybenzoate hydroxylase; test: Binding affinity against p-hydroxybenzoate hydroxylase (PHBH) from Pseudomonas fluorescence competing with p-hydroxy benzoic acid
[3] = target: T1, p-hydroxybenzoate hydroxylase; test: Inhibitory concentration against p-hydroxybenzoate hydroxylase (PHBH) from Pseudomonas fluorescence

T1 sequence (P00438 whole entry): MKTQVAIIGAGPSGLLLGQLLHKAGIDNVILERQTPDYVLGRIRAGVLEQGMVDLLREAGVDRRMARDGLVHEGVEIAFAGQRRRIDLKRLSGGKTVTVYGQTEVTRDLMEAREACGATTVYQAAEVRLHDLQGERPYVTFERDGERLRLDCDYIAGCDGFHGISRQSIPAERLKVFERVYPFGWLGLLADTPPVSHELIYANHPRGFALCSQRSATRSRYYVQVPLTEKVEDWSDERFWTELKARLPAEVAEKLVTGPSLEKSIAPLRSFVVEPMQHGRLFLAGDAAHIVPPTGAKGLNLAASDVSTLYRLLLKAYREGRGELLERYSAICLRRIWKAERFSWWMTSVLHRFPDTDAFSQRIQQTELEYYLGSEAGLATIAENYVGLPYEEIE

pKi [1] | pKi [2] | pIC50 [3] | SMILES
7.16 | 7.23 |  | O=C(O)c1ccc(O)cc1OCc1ccccc1
 |  | 4.00 | O=C(O)c1ccc(O)c(OCc2ccccc2)c1

Source: ChEMBL document CHEMBL1127417, “Multisubstrate inhibition of 4-hydroxybenzoate 3-monooxygenase” (J Med Chem, 1994)
